Source: US12606528B2, “Methods and materials for inhibiting NF-kB activity” (University of Pittsburgh - Of the Commonwealth System of …, priority 2019, dated 2026)
Like-named read-outs stand apart in the source and are kept apart here.

How the values were obtained:
TNF release = test: TNF assay: TNF release from LPS-stimulated human PBMCs (TNF ELISA); type: cell-based; conditions: PBMC, read-out: IC50 (TNF assay)
Method: 25k THP1-NF-κB-LUC cells were dispensed into 384 well plate (per well). Cells were treated with compounds with various concentrations for 2 hours before addition of LPS (10 ng/mL) for 18 hours. Secreted luciferase activity were measured using quant-luc reagents (1 bag of luc reagent dilute to 40 mL, use 10 μL per well). Data were normalized to vehicle control and graphed. Compound IC50 towards inhibiting NF-κB were determined through Prism. Similarly, 10k human PBMCs cells were cultured in 384 well plate (per well). Cells were treated with compounds with various concentrations for 2 hours before addition of LPS (10 ng/ml) for 18 hours, and supernatants were collected and assayed for TNF ELISA. Compound IC50 towards inhibiting TNF release were determined through Prism. • Activity: “+”>10 μM, “++”>1 μM and <10 μM, “+++”>0.1 μM and <1 μM, “++++”<0.1 μM.

NF-κB = NF-κB assay: THP1-NF-κB-LUC cells, LPS-stimulated secreted luciferase; type: cell-based; conditions: THP1-NF-κB-LUC cells, read-out: IC50 (NF-κB assay)
Outline: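 THP1-NF-κB-LUC cells (25k/well) were pretreated with compounds for 2 h, then stimulated with LPS (10 ng/mL) for 18 h. Secreted luciferase was measured and normalized to vehicle, and IC50 was fitted from the concentration series.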

[1] = LPS-stimulated human PBMCs, TNF ELISA
[2] = human PBMCs, compounds 2 hours before LPS (10 ng/ml) for 18 hours, supernatant TNF ELISA
[3] = compounds 2 hours before LPS (10 ng/mL) for 18 hours, secreted luciferase

Row | Compound | IC50 (TNF release; [1]) [µM] | IC50 (NF-κB; LPS-stimulated) [µM] | IC50 (TNF release; [2]) [µM] | IC50 (NF-κB; [3]) [µM]
1 | CC(C)S(=O)(=O)[C@@H]1CN(Cc2ccccc2)C[C@H]1S(=O)(=O)c1ccc(F)cc1 (racemic) [BC19643] | > 10 | > 10 | – | –
2 | CC(=O)N1C[C@@H](S(=O)(=O)c2ccc(F)cc2)[C@H](S(=O)(=O)C(C)C)C1 (racemic) [BC19670] | 1 to 10 | 1 to 10 | – | –
3 | CC(C)S(=O)(=O)[C@H]1CN(C(=O)c2ccccc2)C[C@@H]1S(=O)(=O)c1ccc(F)cc1 (racemic) [BC19683] | 1 to 10 | > 10 | – | –
4 | CC(C)S(=O)(=O)[C@H]1CN(C2CCOCC2)C[C@@H]1S(=O)(=O)c1ccc(F)cc1 (racemic) [BC19684] | > 10 | > 10 | – | –
5 | Cn1cnnc1-c1ccc2nc(-c3ccc(F)cc3)c(-c3ccc(F)cc3)nc2c1 [BC19101] | > 10 | < 0.1 | – | –
6 | Cc1nnc(-c2ccc3nc(-c4ccc(F)cc4)c(-c4ccc(F)cc4)nc3c2)[nH]1 [BC19102] | > 10 | 0.1 to 1 | – | –
7 | CN1CCN(C(=O)c2ccc3nc(C(F)(F)F)c(-c4ccc(F)cc4)nc3c2)CC1 [BC19103] | > 10 | > 10 | – | –
8 | CN1CCN(C(=O)c2ccc3nc(C(F)(F)F)c(-c4ccccc4)nc3c2)CC1 [BC19104] | > 10 | > 10 | – | –
9 | CN1CCN(C(=O)c2ccc3nc(C(F)(F)F)c(-c4cccnc4)nc3c2)CC1 [BC19105] | > 10 | > 10 | – | –
10 | CN1CCN(C(=O)c2ccc3nc(C(F)(F)F)c(-c4ccccc4F)nc3c2)CC1 [BC19106] | > 10 | > 10 | – | –
11 | CN1CCN(C(=O)c2ccc3nc(C(F)(F)F)c(-c4ccc(F)cc4F)nc3c2)CC1 [BC19107] | > 10 | > 10 | – | –
12 | CN1CCN(C(=O)c2ccc3nc(C(F)(F)F)c(-c4cc(F)cc(F)c4)nc3c2)CC1 [BC19108] | > 10 | > 10 | – | –
13 | CN1CCN(C(=O)c2ccc3nc(-c4cccs4)c(-c4ccc(F)cc4)nc3c2)CC1 [BC19109] | > 10 | 0.1 to 1 | – | –
14 | CN1CCN(C(=O)c2ccc3nc(-c4ccc(F)cc4)c(C(F)(F)F)nc3c2)CC1 [BC19110] | > 10 | > 10 | – | –
15 | Fc1ccc(-c2nc3cc(-c4nnc[nH]4)ccc3nc2C(F)(F)F)cc1 [BC19111] | > 10 | > 10 | – | –
16 | Cn1nnnc1-c1ccc2nc(C(F)(F)F)c(-c3ccc(F)cc3)nc2c1 [BC19112] | > 10 | > 10 | – | –
17 | Fc1ccc(-c2nc3cc(-c4nnn[nH]4)ccc3nc2C(F)(F)F)cc1 [BC19113] | > 10 | > 10 | – | –
18 | Cc1cnc(-c2ccc3nc(C(F)(F)F)c(-c4ccc(F)cc4)nc3c2)o1 [BC19114] | > 10 | > 10 | – | –
19 | Fc1ccc(-c2nc3cc(-c4ncco4)ccc3nc2C(F)(F)F)cc1 [BC19115] | > 10 | > 10 | – | –
20 | Fc1ccc(-c2nc3cc(-c4nnco4)ccc3nc2C(F)(F)F)cc1 [BC19116] | > 10 | > 10 | – | –

Row | Compound | IC50 (TNF release; [1]) [µM] | IC50 (NF-κB; LPS-stimulated) [µM] | IC50 (TNF release; [2]) [µM] | IC50 (NF-κB; [3]) [µM]
21 | NC(=O)c1ccc2nc(-c3ccc(F)cc3)c(C(F)(F)F)nc2c1 [BC19117] | > 10 | > 10 | – | –
22 | O=C(O)c1ccc2nc(-c3ccc(F)cc3)c(-c3ccc(F)cc3)nc2c1 [BC19118] | > 10 | 1 to 10 | – | –
23 | CNC(=O)c1ccc2nc(-c3cccs3)c(-c3ccc(F)cc3)nc2c1 [BC19119] | < 0.1 | < 0.1 | – | –
24 | C#CCNC(=O)c1ccc2nc(-c3cccs3)c(-c3ccc(F)cc3)nc2c1 [BC19120] | < 0.1 | < 0.1 | – | –
25 | O=c1c(S(=O)(=O)c2ccc(F)c(F)c2)c[nH]c2cccnc12 [BC19121] | – | – | > 10 | > 10
26 | O=c1c(S(=O)(=O)c2ccc(F)c(F)c2)c[nH]c2ccc(Cl)nc12 [BC19122] | – | – | > 10 | > 10
27 | O=c1c(S(=O)(=O)c2ccc(F)cc2)c[nH]c2ccncc12 [BC19123] | – | – | > 10 | 1 to 10
28 | O=c1c(S(=O)(=O)c2ccc(F)cc2)c[nH]c2cccnc12 [BC19124] | – | – | > 10 | > 10
29 | CCS(=O)(=O)c1oc(-c2ccc(C)cc2)nc1S(=O)(=O)c1ccc(F)cc1 [BC19125] | < 0.1 | < 0.1 | – | –
30 | Cc1ccc(-c2nc(S(=O)(=O)c3ccc(Cl)cc3)c(S(C)(=O)=O)o2)cc1 [BC19126] | 0.1 to 1 | 1 to 10 | – | –
31 | CCS(=O)(=O)c1oc(-c2ccc(C)cc2)nc1S(=O)(=O)c1ccc(Cl)cc1 [BC19127] | 1 to 10 | < 0.1 | – | –
32 | Cc1ccc(-c2nc(S(=O)(=O)c3ccc(Br)cc3)c(S(C)(=O)=O)o2)cc1 [BC19128] | 0.1 to 1 | 1 to 10 | – | –
33 | CCS(=O)(=O)c1oc(-c2ccc(C)cc2)nc1S(=O)(=O)c1ccc(Br)cc1 [BC19129] | 0.1 to 1 | < 0.1 | – | –
34 | CCCS(=O)(=O)c1oc(-c2ccc(C)cc2)nc1S(=O)(=O)c1ccc(Br)cc1 [BC19130] | 0.1 to 1 | 0.1 to 1 | – | –
35 | O=C1COc2cc(S(=O)(=O)Nc3ccc(Cl)cc3)c(Cl)cc2N1 [BC19133] | – | – | > 10 | < 0.1
36 | CCOc1ccc(NS(=O)(=O)c2cc3c(cc2Br)NC(=O)CO3)cc1 [BC19135] | – | – | > 10 | > 10
37 | CC(C)c1ccc(NS(=O)(=O)c2cc3c(cc2Cl)NC(=O)CO3)cc1 [BC19136] | – | – | > 10 | > 10
38 | COc1ccc(NS(=O)(=O)c2cc3c(cc2Br)NC(=O)CO3)cc1 [BC19137] | – | – | > 10 | 0.1 to 1
39 | CCc1ccc(NS(=O)(=O)c2cc3c(cc2Br)NC(=O)CO3)cc1 [BC19138] | – | – | > 10 | < 0.1
40 | Cn1nnnc1-c1ccc2nc(-c3ccc(F)cc3)c(-c3ccc(F)cc3)nc2c1 [BC19139] | > 10 | < 0.1 | – | –

Row | Compound | IC50 (TNF release; [1]) [µM] | IC50 (NF-κB; LPS-stimulated) [µM] | IC50 (TNF release; [2]) [µM] | IC50 (NF-κB; [3]) [µM]
41 | Cc1cnc(-c2ccc3nc(-c4ccc(F)cc4)c(-c4ccc(F)cc4)nc3c2)o1 [BC19140] | > 10 | 1 to 10 | – | –
42 | Cc1nnc(-c2ccc3nc(-c4ccc(F)cc4)c(-c4ccc(F)cc4)nc3c2)o1 [BC19141] | > 10 | 0.1 to 1 | – | –
43 | COc1ccc(NS(=O)(=O)c2cc3c(cc2C)NC(=O)CO3)cc1Cl [BC181369] | – | – | – | 1 to 10
44 | Cc1ccc(NS(=O)(=O)c2cc3c(cc2C)NC(=O)CO3)cc1 [BC181370] | – | – | – | < 0.1
45 | CC(=O)c1ccc(NS(=O)(=O)c2cc3c(cc2C)N(C(C)=O)CCO3)cc1 [BC181371] | – | – | – | > 10
46 | CC(=O)N1CCOc2cc(S(=O)(=O)Nc3ccc(F)cc3F)c(C)cc21 [BC181372] | – | – | – | 1 to 10
47 | CCc1cccc(NS(=O)(=O)c2cc3c(cc2C)N(C(C)=O)CCO3)c1 [BC181373] | – | – | – | > 10
48 | CCOc1ccc(NS(=O)(=O)c2cc3c(cc2C)N(C)CCO3)cc1 [BC181374] | – | – | – | > 10
49 | Cc1cc2c(cc1S(=O)(=O)Nc1ccc(F)cc1Cl)OCC(=O)N2 [BC181375] | – | – | – | 0.1 to 1
50 | COc1ccc(NS(=O)(=O)c2cc3c(cc2C)NC(=O)CO3)c(OC)c1 [BC181376] | – | – | – | > 10
51 | Cc1cc2c(cc1S(=O)(=O)Nc1cccc(F)c1)OCC(=O)N2 [BC181377] | – | – | – | < 0.1
52 | Cc1cc(C)cc(NS(=O)(=O)c2cc3c(cc2C)NC(=O)CO3)c1 [BC181378] | – | – | – | 1 to 10
53 | CCOc1ccccc1NS(=O)(=O)c1cc2c(cc1C)NC(=O)CO2 [BC181379] | – | – | – | > 10
54 | Cc1cc2c(cc1S(=O)(=O)Nc1ccccc1Cl)OCC(=O)N2 [BC181380] | – | – | – | 0.1 to 1
55 | COc1ccc(NS(=O)(=O)c2cc3c(cc2C)N(C(C)=O)CCO3)cc1OC [BC181381] | – | – | – | > 10
56 | COc1ccc(NS(=O)(=O)c2cc3c(cc2C)N(C(C)=O)CCO3)c(OC)c1 [BC181382] | – | – | – | > 10
57 | CC(=O)N1CCOc2cc(S(=O)(=O)Nc3ccc(C)c(F)c3)c(C)cc21 [BC181383] | – | – | – | 0.1 to 1
58 | Cc1cc2c(cc1S(=O)(=O)Nc1ccc(C(C)C)cc1)OCCN2C [BC181384] | – | – | – | 1 to 10
59 | CC(=O)Nc1ccc(NS(=O)(=O)c2cc3c(cc2C)NC(=O)CO3)cc1 [BC181385] | – | – | – | > 10
